Reference: PubChem BioAssay (NCI)
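The compound was tested at five concentrations on cells cultured in 96-well plates, with a 48-hour exposure period. The concentration for full growth arrest is given as TGI.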

How the values were obtained:
Test in all cases: growth of human tumour cells (NCI), 48 h
SF-539 CNS = system: SF-539 CNS
SK-MEL-2 melanoma = system: SK-MEL-2 melanoma
HL-60(TB) leukemia = system: HL-60(TB) leukemia
TK-10 renal = system: TK-10 renal
SK-MEL-5 melanoma = system: SK-MEL-5 melanoma
BT-549 breast = system: BT-549 breast
UO-31 renal = system: UO-31 renal
HCT-15 colon = system: HCT-15 colon
DU-145 prostate = system: DU-145 prostate
OVCAR-3 ovarian = system: OVCAR-3 ovarian
MDA-N = system: MDA-N
NCI-H522 lung = system: NCI-H522 lung
K-562 leukemia = system: K-562 leukemia
UACC-62 melanoma = system: UACC-62 melanoma
EKVX NSCLC = system: EKVX NSCLC
SW-620 colon = system: SW-620 colon
MDA-MB-231 breast = system: MDA-MB-231 breast
HCT-116 colon = system: HCT-116 colon
MALME-3M melanoma = system: MALME-3M melanoma
MOLT-4 leukemia = system: MOLT-4 leukemia
COLO 205 colon = system: COLO 205 colon
SNB-19 CNS = system: SNB-19 CNS
OVCAR-8 ovarian = system: OVCAR-8 ovarian
SF-268 CNS = system: SF-268 CNS
A549 NSCLC = system: A549 NSCLC
RPMI-8226 leukemia = system: RPMI-8226 leukemia
MDA-MB-435 = system: MDA-MB-435
A498 renal = system: A498 renal
SF-295 CNS = system: SF-295 CNS
NCI-H460 lung = system: NCI-H460 lung
M14 melanoma = system: M14 melanoma
CAKI-1 renal = system: CAKI-1 renal
KM12 colon = system: KM12 colon
U251 CNS = system: U251 CNS
SN12C renal = system: SN12C renal
T-47D breast = system: T-47D breast
786-0 renal = system: 786-0 renal
SK-MEL-28 melanoma = system: SK-MEL-28 melanoma
OVCAR-5 ovarian = system: OVCAR-5 ovarian
PC-3 prostate = system: PC-3 prostate
NCI-H23 lung = system: NCI-H23 lung
HOP-62 NSCLC = system: HOP-62 NSCLC
ACHN renal = system: ACHN renal
SK-OV-3 ovarian = system: SK-OV-3 ovarian
IGROV1 ovarian = system: IGROV1 ovarian
OVCAR-4 ovarian = system: OVCAR-4 ovarian
CCRF-CEM leukemia = system: CCRF-CEM leukemia
HS 578T breast = system: HS 578T breast
HCC-2998 colon = system: HCC-2998 colon
MCF7 breast = system: MCF7 breast
NCI/ADR-RES ovarian = system: NCI/ADR-RES ovarian
NCI-H226 lung = system: NCI-H226 lung
HT29 colon = system: HT29 colon
UACC-257 melanoma = system: UACC-257 melanoma
LOX IMVI melanoma = system: LOX IMVI melanoma
HOP-92 NSCLC = system: HOP-92 NSCLC
RXF 393 renal = system: RXF 393 renal
SNB-75 CNS = system: SNB-75 CNS

CC(C)=CCC/C(C)=C/CO
TGI (SF-539 CNS): > 100 µM
TGI (SK-MEL-2 melanoma): > 100 µM
TGI (HL-60(TB) leukemia): > 100 µM
TGI (TK-10 renal): > 100 µM
TGI (SK-MEL-5 melanoma): > 100 µM
TGI (BT-549 breast): > 100 µM
TGI (UO-31 renal): > 100 µM
TGI (HCT-15 colon): > 100 µM
TGI (DU-145 prostate): > 100 µM
TGI (OVCAR-3 ovarian): > 100 µM
TGI (MDA-N): > 100 µM
TGI (NCI-H522 lung): > 100 µM
TGI (K-562 leukemia): > 100 µM
TGI (UACC-62 melanoma): > 100 µM
TGI (EKVX NSCLC): > 100 µM
TGI (SW-620 colon): > 100 µM
TGI (MDA-MB-231 breast): > 100 µM
TGI (HCT-116 colon): > 100 µM
TGI (MALME-3M melanoma): > 100 µM
TGI (MOLT-4 leukemia): > 100 µM
TGI (COLO 205 colon): > 100 µM
TGI (SNB-19 CNS): > 100 µM
TGI (OVCAR-8 ovarian): > 100 µM
TGI (SF-268 CNS): > 100 µM
TGI (A549 NSCLC): > 100 µM
TGI (RPMI-8226 leukemia): > 100 µM
TGI (MDA-MB-435): > 100 µM
TGI (A498 renal): > 100 µM
TGI (SF-295 CNS): > 100 µM
TGI (NCI-H460 lung): > 100 µM
TGI (M14 melanoma): > 100 µM
TGI (CAKI-1 renal): > 100 µM
TGI (KM12 colon): > 100 µM
TGI (U251 CNS): > 100 µM
TGI (SN12C renal): > 100 µM
TGI (T-47D breast): > 100 µM
TGI (786-0 renal): > 100 µM
TGI (SK-MEL-28 melanoma): > 100 µM
TGI (OVCAR-5 ovarian): > 100 µM
TGI (PC-3 prostate): > 100 µM
TGI (NCI-H23 lung): > 100 µM
TGI (HOP-62 NSCLC): > 100 µM
TGI (ACHN renal): > 100 µM
TGI (SK-OV-3 ovarian): > 100 µM
TGI (IGROV1 ovarian): > 100 µM
TGI (OVCAR-4 ovarian): > 100 µM
TGI (CCRF-CEM leukemia): > 100 µM
TGI (HS 578T breast): > 100 µM
TGI (HCC-2998 colon): > 100 µM
TGI (MCF7 breast): > 100 µM
TGI (NCI/ADR-RES ovarian): > 100 µM
TGI (NCI-H226 lung): > 100 µM
TGI (HT29 colon): > 100 µM
TGI (UACC-257 melanoma): > 100 µM
TGI (LOX IMVI melanoma): > 100 µM

O=C1Nc2cc(Cl)ccc2C(=O)N2CCC[C@@H]12
TGI (SK-MEL-2 melanoma): > 100 µM
TGI (HL-60(TB) leukemia): > 100 µM
TGI (TK-10 renal): > 100 µM
TGI (SK-MEL-5 melanoma): > 100 µM
TGI (BT-549 breast): > 100 µM
TGI (UO-31 renal): > 100 µM
TGI (HCT-15 colon): > 100 µM
TGI (DU-145 prostate): > 100 µM
TGI (MDA-N): > 100 µM
TGI (NCI-H522 lung): > 100 µM
TGI (K-562 leukemia): > 100 µM
TGI (UACC-62 melanoma): > 100 µM
TGI (HOP-92 NSCLC): > 100 µM
TGI (EKVX NSCLC): > 100 µM
TGI (SW-620 colon): > 100 µM
TGI (MDA-MB-231 breast): > 100 µM
TGI (HCT-116 colon): > 100 µM
TGI (MALME-3M melanoma): > 100 µM
TGI (COLO 205 colon): > 100 µM
TGI (SNB-19 CNS): > 100 µM
TGI (OVCAR-8 ovarian): > 100 µM
TGI (SF-268 CNS): > 100 µM
TGI (RXF 393 renal): > 100 µM
TGI (A549 NSCLC): > 100 µM
TGI (RPMI-8226 leukemia): > 100 µM
TGI (MDA-MB-435): > 100 µM
TGI (A498 renal): > 100 µM
TGI (SF-295 CNS): > 100 µM
TGI (NCI-H460 lung): > 100 µM
TGI (M14 melanoma): > 100 µM
TGI (CAKI-1 renal): > 100 µM
TGI (KM12 colon): > 100 µM
TGI (U251 CNS): > 100 µM
TGI (SN12C renal): > 100 µM
TGI (T-47D breast): > 100 µM
TGI (786-0 renal): > 100 µM
TGI (SK-MEL-28 melanoma): > 100 µM
TGI (SNB-75 CNS): > 100 µM
TGI (OVCAR-5 ovarian): > 100 µM
TGI (PC-3 prostate): > 100 µM
TGI (NCI-H23 lung): > 100 µM
TGI (HOP-62 NSCLC): > 100 µM
TGI (ACHN renal): > 100 µM
TGI (SK-OV-3 ovarian): > 100 µM
TGI (IGROV1 ovarian): > 100 µM
TGI (OVCAR-4 ovarian): > 100 µM
TGI (CCRF-CEM leukemia): > 100 µM
TGI (HS 578T breast): > 100 µM
TGI (HCC-2998 colon): > 100 µM
TGI (MCF7 breast): > 100 µM
TGI (NCI/ADR-RES ovarian): > 100 µM
TGI (NCI-H226 lung): 98.2 µM
TGI (HT29 colon): > 100 µM
TGI (UACC-257 melanoma): > 100 µM
TGI (LOX IMVI melanoma): > 100 µM

O=C1C(Cl)=C(Cl)C(=O)C2=C1C1c3ccccc3C2c2ccccc21
TGI (SF-539 CNS): 65.9 µM
TGI (SK-MEL-2 melanoma): > 100 µM
TGI (HL-60(TB) leukemia): 52.5 µM
TGI (TK-10 renal): > 100 µM
TGI (SK-MEL-5 melanoma): > 100 µM
TGI (BT-549 breast): > 100 µM
TGI (UO-31 renal): > 100 µM
TGI (HCT-15 colon): > 100 µM
TGI (DU-145 prostate): > 100 µM
TGI (OVCAR-3 ovarian): > 100 µM
TGI (MDA-N): > 100 µM
TGI (NCI-H522 lung): 33 µM
TGI (K-562 leukemia): > 100 µM
TGI (UACC-62 melanoma): 79.9 µM
TGI (HOP-92 NSCLC): 43.5 µM
TGI (EKVX NSCLC): > 100 µM
TGI (SW-620 colon): 59.5 µM
TGI (MDA-MB-231 breast): 65.2 µM
TGI (HCT-116 colon): > 100 µM
TGI (MALME-3M melanoma): 57.7 µM
TGI (MOLT-4 leukemia): > 100 µM
TGI (COLO 205 colon): 61.4 µM
TGI (SNB-19 CNS): > 100 µM
TGI (OVCAR-8 ovarian): > 100 µM
TGI (SF-268 CNS): > 100 µM
TGI (RXF 393 renal): 75.2 µM
TGI (A549 NSCLC): > 100 µM
TGI (RPMI-8226 leukemia): 53.5 µM
TGI (MDA-MB-435): > 100 µM
TGI (A498 renal): > 100 µM
TGI (SF-295 CNS): > 100 µM
TGI (NCI-H460 lung): 99.2 µM
TGI (M14 melanoma): > 100 µM
TGI (KM12 colon): > 100 µM
TGI (U251 CNS): 45.4 µM
TGI (SN12C renal): > 100 µM
TGI (T-47D breast): 60.1 µM
TGI (786-0 renal): 47.4 µM
TGI (SK-MEL-28 melanoma): > 100 µM
TGI (SNB-75 CNS): > 100 µM
TGI (OVCAR-5 ovarian): > 100 µM
TGI (PC-3 prostate): > 100 µM
TGI (NCI-H23 lung): > 100 µM
TGI (HOP-62 NSCLC): 59.4 µM
TGI (ACHN renal): > 100 µM
TGI (SK-OV-3 ovarian): > 100 µM
TGI (IGROV1 ovarian): > 100 µM
TGI (OVCAR-4 ovarian): > 100 µM
TGI (CCRF-CEM leukemia): > 100 µM
TGI (HS 578T breast): > 100 µM
TGI (HCC-2998 colon): > 100 µM
TGI (MCF7 breast): > 100 µM
TGI (NCI/ADR-RES ovarian): > 100 µM
TGI (NCI-H226 lung): > 100 µM
TGI (HT29 colon): > 100 µM
TGI (UACC-257 melanoma): > 100 µM
